Source: US20010046497A1, “G-protein coupled receptor and methods” (priority 2000, published 2001)

Experiments:
Assay type in all cases: cell-based
[1] = target: T1, SP168 receptor (Homo sapiens, UniProt Q9H244); experiment: FLIPR Ca2+ assay, SP168 co-transfected with Gq/i3 in NIH3T3 cells (agonists); parameters: expressed in transfected cells; host or cells: NIH3T3 cells, co-transfected with Gq/i3; settings: for EC50: FLIPR, peak Ca2+ increment, SP168 + Gq/i3 transfected cells
Procedure: (§1) In order to identify SP168 receptor ligands the SP168 open reading frame was subcloned into the pcDNA3.1 expression vector under the control of the CMV promoter and transfected into mammalian cells. After allowing two days for receptor expression, the transfected cells were seeded into 96 well plates, loaded with the Ca^2+ sensitive Fluo-3AM dye and challenged with various compounds. The peak increments in Ca^2+ evoked by the test compounds were measured using the Fluorometric Inaging Plate Reader (FLIPR) system. The endogenous ligand of the SP168 receptor was purified from rat spinal cords using a series of chromatography steps and its structure was identified as being ADP by Mass spectroscopy. […] In addition to ADP, other agonists were also identified for SP168.
SP168 receptor cDNA was subdloned into the pcDNA3.1 expression vector (Invitrogen) and transiently co-transfected with chimera G protein Gq/i3 into CHO-DHFR^− (ATCC CRL-9096) cells using lipofectamine (Gibco- BRL). Chimera G protein Gq/i3 was constructed by replacing the C-terminus five amino acid residues of human Gqa with the five amino acid residue of human Gi3a (Conklin et al., Nature, 363, p274-276). pCDNA 3.1 vector DNA was also co-transfected with chimera G protein Gq/i3 as a negative control. The transfected cells were seeded into 96 well plates and incubated overnight at 37° C. in a tissue culture incubator. The growth medium was aspirated and replaced with 100 μl of loading medium (DMEM containing 1% FBS, […] Fluo-3-AM/10% pluronic acid and 2.5 mM Probenecid) and incubated for 1 hour at 37° C. The cells were subsequently washed 3 times with Hank's BSS buffer containing 20 mM HEPES, 2.5 mM Probenecid, and 0.1% BSA using the gentle setting in a Denley cell washer (Denley Instruments). The washed cells were placed in a Fluorometric Imaging Plate Reader (FLIPR) and changes in cellular fluorescence recorded after the addition of various dilutions of tissue extract fractions.
(§2) Pharmacology of SP168—The pharmacological profile of SP168 was fuirther characterized by using the FLIPR and cAMP assays. SP168 was co-transfected with Gq/i3 to NIH3T3 cells, and a variety of nucleotides were screened by the FLIPR assay. […] EC50 for background ATP was about 1600 rLM, which was similar to 2-C1-ATP but was 20 fold higher than ADP. Therefore, even if ATP was included, the order of agonist potency was 2-MeS-ATP=2-MeS-ADP>ADP=ADPPS>ATPyS=ATP.

[2] = test system: NIH3T3; experiment: FLIPR assay, background response of NIH3T3 cells; settings: fold higher than ADP
Excerpt: as §2

[3] = target: T1, SP168 receptor; experiment: cAMP assay (inhibition of adenylyl cyclase); parameters: expressed in transfected cells; settings: adenylyl cyclase / cAMP pathway
Procedure: as §1
The SP168 receptor cDNA was stably transfected into CHO-DHFR cells according standard procedures. The SP168 receptor stable cell line and wild type cell grown on 12-well plates were incubated for 2 hr with […] of medium plus 5 μCi of [3H]adenine/ml. Then 50 μl of Hepes (250 mM, pH 7.5, 50 μM Forskolin, 200 μM IBMX) with the compound to be screened was added to the cells and incubated for 10 minutes at 37 ° C. Incubations were terminated by addition of 0.8 ml of 5% trichloroacetic acid. [^3H]cAMP was purified using Dowex and alumina chromatography as previously described (Harden et al., Mol. Pharmacol. 21:570-580, 1982).

T1 sequence (Q9H244 whole entry): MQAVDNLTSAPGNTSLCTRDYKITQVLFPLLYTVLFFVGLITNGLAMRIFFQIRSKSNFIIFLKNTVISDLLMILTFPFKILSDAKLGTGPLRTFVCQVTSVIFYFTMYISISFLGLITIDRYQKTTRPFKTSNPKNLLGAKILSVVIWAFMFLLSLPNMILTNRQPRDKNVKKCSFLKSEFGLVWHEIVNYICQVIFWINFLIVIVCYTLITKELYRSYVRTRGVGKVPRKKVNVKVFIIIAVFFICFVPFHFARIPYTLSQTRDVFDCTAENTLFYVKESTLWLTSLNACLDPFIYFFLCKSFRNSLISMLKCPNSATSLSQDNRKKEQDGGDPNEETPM

SMILES | EC50 [1] [µM] | other results
CSc1nc(N)c2ncn([C@@H]3O[C@H](COP(=O)(O)OP(=O)(O)O)[C@@H](O)[C@H]3O)c2n1 [2-MeS-ADP] | 0.0023 | 
Nc1ncnc2c1ncn2[C@@H]1O[C@H](COP(=O)(O)OP(=O)(O)OP(=O)(O)O)[C@@H](O)[C@H]1O [ATP] |  | EC50 of background ATP relative to ADP [2]: 20 fold; shift of dosage curve by SP168 transfection ([1]; NIH3T3, FLIPR): did not induce the shift of dosage curve
Nc1ncnc2c1ncn2[C@@H]1O[C@H](COP(=O)(O)OP(=O)(O)O)[C@@H](O)[C@H]1O [ADP, 5′-adenosine diphosphate] | 0.074 | activation of the SP168 receptor [3]: activate the SP168 receptor through inhibition of adenylyl cyclase
Nc1nc(Cl)nc2c1ncn2[C@@H]1O[C@H](COP(=O)(O)OP(=O)(O)OP(=O)(O)O)[C@@H](O)[C@H]1O [2-Cl-ATP] | 0.47 | 
Nc1ncnc2c1ncn2[C@@H]1O[C@H](COP(=O)(O)OP(O)(O)=S)[C@@H](O)[C@H]1O [ADPβS] | 0.089 | 

Continued, in another order:

EC50 [1] [µM] | SMILES | other results
1.2 | Nc1ncnc2c1ncn2[C@@H]1O[C@H](COP(=O)(O)OP(=O)(O)OP(O)(O)=S)[C@@H](O)[C@H]1O [ATPγS] | 
0.0034 | CSc1nc(N)c2ncn([C@@H]3O[C@H](COP(=O)(O)OP(=O)(O)OP(=O)(O)O)[C@@H](O)[C@H]3O)c2n1 [2-MeS-ATP] | 
